From ChEMBL document CHEMBL4665836, “Overcoming β-Lactam resistance in Pseudomonas aeruginosa using non-canonical tobramycin-based antibiotic adjuvants” (2020)

Columns and labels:
Type in all cases: functional
Pseudomonas aeruginosa [1] = assay: Potentiation of ceftazidime-induced antibacterial activity against carbapenem-resistant Pseudomonas aeruginosa 107092 clinical isolate assessed as ceftazidime MIC at 8 uM by checkerboard assay (reference value: 128 ug/ml)
Pseudomonas aeruginosa [2] = assay: Potentiation of ceftazidime-induced antibacterial activity against carbapenem-resistant Pseudomonas aeruginosa 109084 clinical isolate assessed as fold reduction in ceftazidime MIC at 8 uM in presence of beta-lactamase inhibitor, avi-bactam
Pseudomonas aeruginosa [3] = assay: Potentiation of imipenem-induced antibacterial activity against carbapenem-resistant Pseudomonas aeruginosa 109084 clinical isolate assessed as fold reduction in imipenem MIC at 8 uM in presence of beta-lactamase inhibitor, rele-bactam
Pseudomonas aeruginosa [4] = assay: Potentiation of piperacillin-induced antibacterial activity against wild type Pseudomonas aeruginosa PAO1 assessed as fold reduction in piperacillin MIC at 8 uM
Pseudomonas aeruginosa [5] = assay: Potentiation of imipenem-induced antibacterial activity against carbapenem-resistant Pseudomonas aeruginosa 107092 clinical isolate assessed as fold reduction in imipenem MIC at 8 uM in presence of beta-lactamase inhibitor, rele-bactam
Pseudomonas aeruginosa [6] = assay: Potentiation of ceftazidime-induced antibacterial activity against carbapenem-resistant Pseudomonas aeruginosa 86052 clinical isolate assessed as fold reduction in ceftazidime MIC at 8 uM in presence of beta-lactamase inhibitor, avi-bactam
Pseudomonas aeruginosa [7] = assay: Potentiation of aztreonam-induced antibacterial activity against carbapenem-resistant Pseudomonas aeruginosa 108590 clinical isolate assessed as aztreonam MIC at 8 uM by checkerboard assay (reference value: 32 ug/ml)
Pseudomonas aeruginosa [8] = assay: Potentiation of imipenem-induced antibacterial activity against carbapenem-resistant Pseudomonas aeruginosa 100036 clinical isolate assessed as imipenem MIC at 8 uM by checkerboard assay (reference value: 8 ug/ml)
Pseudomonas aeruginosa [9] = assay: Potentiation of imipenem-induced antibacterial activity against carbapenem-resistant Pseudomonas aeruginosa 86052 clinical isolate assessed as fold reduction in imipenem MIC at 8 uM in presence of beta-lactamase inhibitor, rele-bactam
Pseudomonas aeruginosa [10] = assay: Potentiation of imipenem-induced antibacterial activity against carbapenem-resistant Pseudomonas aeruginosa 264-104354 clinical isolate assessed as imipenem MIC at 8 uM by checkerboard assay (reference value: 16 ug/ml)
Pseudomonas aeruginosa [11] = assay: Potentiation of aztreonam-induced antibacterial activity against carbapenem-resistant Pseudomonas aeruginosa PAO200 harboring mexAB-oprM efflux deficient mutant assessed as aztreonam MIC at 8 uM by checkerboard assay (reference value: 0.25 ug/ml)
Pseudomonas aeruginosa [12] = assay: Potentiation of ceftazidime-induced antibacterial activity against carbapenem-resistant Pseudomonas aeruginosa 101885 clinical isolate assessed as ceftazidime MIC at 8 uM by checkerboard assay (reference value: 8 ug/ml)
Pseudomonas aeruginosa [13] = assay: Potentiation of aztreonam-induced antibacterial activity against carbapenem-resistant Pseudomonas aeruginosa PAO750 harboring mexAB-oprM/mexCD-oprJ/mexEF-oprN/mexJK/mexXY/opmH efflux deficient mutant assessed as aztreonam MIC at 8 uM by checkerboard assay (reference value: 0.5 ug/ml)
Pseudomonas aeruginosa [14] = assay: Potentiation of imipenem-induced antibacterial activity against carbapenem-resistant Pseudomonas aeruginosa 259-96918 clinical isolate expressing MBL assessed as imipenem MIC at 8 uM by checkerboard assay (reference value: 64 ug/ml)
Pseudomonas aeruginosa [15] = assay: Potentiation of imipenem-induced antibacterial activity against carbapenem-resistant Pseudomonas aeruginosa 108590 clinical isolate assessed as fold reduction in imipenem MIC at 8 uM in presence of beta-lactamase inhibitor, rele-bactam
Pseudomonas aeruginosa [16] = assay: Potentiation of ceftazidime-induced antibacterial activity against carbapenem-resistant Pseudomonas aeruginosa 108590 clinical isolate assessed as fold reduction in ceftazidime MIC at 8 uM in presence of beta-lactamase inhibitor, avi-bactam
Pseudomonas aeruginosa [17] = assay: Potentiation of ceftazidime-induced antibacterial activity against carbapenem-resistant Pseudomonas aeruginosa 88949 clinical isolate assessed as ceftazidime MIC at 8 uM by checkerboard assay (reference value: 64 ug/ml)
Pseudomonas aeruginosa [18] = assay: Potentiation of ceftazidime-induced antibacterial activity against carbapenem-resistant Pseudomonas aeruginosa 88949 clinical isolate assessed as fold reduction in ceftazidime MIC at 8 uM in presence of beta-lactamase inhibitor, avi-bactam
Pseudomonas aeruginosa [19] = assay: Potentiation of ceftazidime-induced antibacterial activity against carbapenem and colistin-resistant Pseudomonas aeruginosa 114228 clinical isolate assessed as ceftazidime MIC at 8 uM by checkerboard assay (reference value: 8 ug/ml)
Pseudomonas aeruginosa [20] = assay: Potentiation of aztreonam-induced antibacterial activity against carbapenem-resistant Pseudomonas aeruginosa 88949 clinical isolate assessed as aztreonam MIC at 8 uM by checkerboard assay (reference value: 32 ug/ml)
Pseudomonas aeruginosa [21] = assay: Potentiation of ceftazidime-induced antibacterial activity against carbapenem-resistant Pseudomonas aeruginosa PAO200 harboring mexAB-oprM efflux deficient mutant assessed as ceftazidime MIC at 8 uM by checkerboard assay (reference value: 1 ug/ml)
Pseudomonas aeruginosa [22] = assay: Potentiation of ceftazidime-induced antibacterial activity against carbapenem-resistant Pseudomonas aeruginosa 264-104354 clinical isolate assessed as ceftazidime MIC at 8 uM by checkerboard assay (reference value: 128 ug/ml)
Pseudomonas aeruginosa [23] = assay: Potentiation of imipenem-induced antibacterial activity against carbapenem-resistant Pseudomonas aeruginosa PAO750 harboring mexAB-oprM/mexCD-oprJ/mexEF-oprN/mexJK/mexXY/opmH efflux deficient mutant assessed as imipenem MIC at 8 uM by checkerboard assay (reference value: 4 ug/ml)
Pseudomonas aeruginosa [24] = assay: Potentiation of aztreonam-induced antibacterial activity against carbapenem-resistant Pseudomonas aeruginosa 101885 clinical isolate assessed as aztreonam MIC at 8 uM by checkerboard assay (reference value: 16 ug/ml)
Pseudomonas aeruginosa [25] = assay: Potentiation of ceftazidime-induced antibacterial activity against wild type Pseudomonas aeruginosa PAO1 assessed as ceftazidime MIC at 8 uM by checkerboard assay (reference value: 2 ug/ml)
Pseudomonas aeruginosa [26] = assay: Potentiation of ceftazidime-induced antibacterial activity against carbapenem-resistant Pseudomonas aeruginosa PAO750 harboring and mexAB-oprM/mexCD-oprJ/mexEF-oprN/mexJK/mexXY/opmH efflux deficient mutant assessed as ceftazidime MIC at 8 uM by checkerboard assay (reference value: 0.5 ug/ml)
Pseudomonas aeruginosa [27] = assay: Potentiation of aztreonam-induced antibacterial activity against carbapenem-resistant Pseudomonas aeruginosa 86052 clinical isolate assessed as aztreonam MIC at 8 uM by checkerboard assay (reference value: 64 ug/ml)
Pseudomonas aeruginosa [28] = assay: Potentiation of imipenem-induced antibacterial activity against carbapenem and colistin-resistant Pseudomonas aeruginosa 91433 clinical isolate assessed as imipenem MIC at 8 uM by checkerboard assay (reference value: 8 ug/ml)
Pseudomonas aeruginosa [29] = assay: Potentiation of aztreonam-induced antibacterial activity against carbapenem-resistant Pseudomonas aeruginosa 100036 clinical isolate assessed as aztreonam MIC at 8 uM by checkerboard assay (reference value: 16 ug/ml)
Pseudomonas aeruginosa [30] = assay: Potentiation of imipenem-induced antibacterial activity against carbapenem-resistant Pseudomonas aeruginosa 88949 clinical isolate assessed as fold reduction in imipenem MIC at 8 uM in presence of beta-lactamase inhibitor, rele-bactam
Pseudomonas aeruginosa [31] = assay: Potentiation of imipenem-induced antibacterial activity against carbapenem-resistant Pseudomonas aeruginosa 108590 clinical isolate assessed as imipenem MIC at 8 uM by checkerboard assay (reference value: 16 ug/ml)

SMILES | MIC (Pseudomonas aeruginosa [1]) [µg/mL] | fold change (FC) (Pseudomonas aeruginosa [2]) | fold change (FC) (Pseudomonas aeruginosa [3]) | fold change (FC) (Pseudomonas aeruginosa [4]) | fold change (FC) (Pseudomonas aeruginosa [5]) | fold change (FC) (Pseudomonas aeruginosa [6]) | MIC (Pseudomonas aeruginosa [7]) [µg/mL] | MIC (Pseudomonas aeruginosa [8]) [µg/mL] | fold change (FC) (Pseudomonas aeruginosa [9]) | MIC (Pseudomonas aeruginosa [10]) [µg/mL] | MIC (Pseudomonas aeruginosa [11]) [µg/mL] | MIC (Pseudomonas aeruginosa [12]) [µg/mL] | MIC (Pseudomonas aeruginosa [14]) [µg/mL] | fold change (FC) (Pseudomonas aeruginosa [15]) | fold change (FC) (Pseudomonas aeruginosa [16]) | fold change (FC) (Pseudomonas aeruginosa [18]) | MIC (Pseudomonas aeruginosa [23]) [µg/mL] | MIC (Pseudomonas aeruginosa [28]) [µg/mL] | fold change (FC) (Pseudomonas aeruginosa [30]) | MIC (Pseudomonas aeruginosa [31]) [µg/mL] | also measured
N=C(N)NC[C@H]1O[C@H](O[C@H]2[C@H](OCCCCCCCCCCCCN3CCN(c4cc5c(cc4F)c(=O)c(C(=O)O)cn5C4CC4)CC3)[C@@H](O[C@H]3O[C@H](CO)[C@@H](O)[C@H](NC(=N)N)[C@H]3O)[C@H](NC(=N)N)C[C@@H]2NC(=N)N)[C@H](NC(=N)N)C[C@@H]1O.O=C(O)C(F)(F)F.O=C(O)C(F)(F)F.O=C(O)C(F)(F)F.O=C(O)C(F)(F)F.O=C(O)C(F)(F)F.O=C(O)C(F)(F)F | 32 | 16 | 16 | 2 | 16 | 16 | 2 | 4 | 16 | 16 | 0.06 | 2 | 64 | 16 | 16 | 16 | 1 | 8 | 16 | 4 | MIC (Pseudomonas aeruginosa [13]): 0.06 µg/mL; MIC (Pseudomonas aeruginosa [17]): 32 µg/mL; MIC (Pseudomonas aeruginosa [19]): 2 µg/mL; MIC (Pseudomonas aeruginosa [20]): 32 µg/mL; MIC (Pseudomonas aeruginosa [21]): 0.25 µg/mL; MIC (Pseudomonas aeruginosa [22]): 128 µg/mL; MIC (Pseudomonas aeruginosa [24]): 4 µg/mL; MIC (Pseudomonas aeruginosa [25]): 0.25 µg/mL; MIC (Pseudomonas aeruginosa [26]): 0.25 µg/mL; MIC (Pseudomonas aeruginosa [27]): 32 µg/mL; MIC (Pseudomonas aeruginosa [29]): 16 µg/mL
NC[C@H]1O[C@H](O[C@H]2[C@H](OCCCCCCCCN3CCCNCCNCCCNCC3)[C@@H](O)[C@H](N)C[C@@H]2N)[C@H](N)C[C@@H]1O.O=C(O)C(F)(F)F.O=C(O)C(F)(F)F.O=C(O)C(F)(F)F.O=C(O)C(F)(F)F.O=C(O)C(F)(F)F.O=C(O)C(F)(F)F.O=C(O)C(F)(F)F.O=C(O)C(F)(F)F | 32 | 16 | 16 | 2 | 16 | 16 | 8 | 8 | 16 | 16 | 0.06 | 2 | 32 | 16 | 16 | 16 | 4 | 4 | 16 | 16 | MIC (Pseudomonas aeruginosa [13]): 0.13 µg/mL; MIC (Pseudomonas aeruginosa [17]): 64 µg/mL; MIC (Pseudomonas aeruginosa [19]): 4 µg/mL; MIC (Pseudomonas aeruginosa [20]): 32 µg/mL; MIC (Pseudomonas aeruginosa [21]): 0.13 µg/mL; MIC (Pseudomonas aeruginosa [22]): 32 µg/mL; MIC (Pseudomonas aeruginosa [24]): 4 µg/mL; MIC (Pseudomonas aeruginosa [25]): 0.5 µg/mL; MIC (Pseudomonas aeruginosa [26]): 0.13 µg/mL; MIC (Pseudomonas aeruginosa [27]): 64 µg/mL; MIC (Pseudomonas aeruginosa [29]): 8 µg/mL
Cl.Cl.Cl.Cl.Cl.Cl.NC[C@H]1O[C@H](O[C@H]2[C@H](OCCCCCCCCCCCCN3CCN(c4cc5c(cc4F)c(=O)c(C(=O)O)cn5C4CC4)CC3)[C@@H](O[C@H]3O[C@H](CO)[C@@H](O)[C@H](N)[C@H]3O)[C@H](N)C[C@@H]2N)[C@H](N)C[C@@H]1O | 16 | 16 | 16 | 2 | 16 | 16 | 0.5 | 2 | 16 | 4 | 0.03 | 1 | 16 | 16 | 16 | 16 | 0.5 | 2 | 16 | 0.25 | MIC (Pseudomonas aeruginosa [13]): 0.06 µg/mL; MIC (Pseudomonas aeruginosa [17]): 32 µg/mL; MIC (Pseudomonas aeruginosa [19]): 0.5 µg/mL; MIC (Pseudomonas aeruginosa [20]): 8 µg/mL; MIC (Pseudomonas aeruginosa [21]): 0.06 µg/mL; MIC (Pseudomonas aeruginosa [22]): 16 µg/mL; MIC (Pseudomonas aeruginosa [24]): 1 µg/mL; MIC (Pseudomonas aeruginosa [25]): 0.25 µg/mL; MIC (Pseudomonas aeruginosa [26]): 0.03 µg/mL; MIC (Pseudomonas aeruginosa [27]): 8 µg/mL; MIC (Pseudomonas aeruginosa [29]): 4 µg/mL
NC[C@H]1O[C@H](O[C@H]2[C@H](OCCCCCCCCN3CCCNCCNCCCNCC3)[C@@H](O[C@H]3O[C@H](CO)[C@@H](O)[C@H](N)[C@H]3O)[C@H](N)C[C@@H]2N)[C@H](N)C[C@@H]1O.O=C(O)C(F)(F)F.O=C(O)C(F)(F)F.O=C(O)C(F)(F)F.O=C(O)C(F)(F)F.O=C(O)C(F)(F)F.O=C(O)C(F)(F)F.O=C(O)C(F)(F)F.O=C(O)C(F)(F)F.O=C(O)C(F)(F)F |  | 16 | 16 | 2 | 16 | 16 |  | 8 | 16 | 8 |  |  | 64 | 16 | 16 | 16 | 2 | 8 | 16 | 16 | 
